“Also recorded” adds a separate entry of the source.
Tests used:
[1] = system: PARP-1, Bax, Bcl-2, Mcl-1; experiment: Western blot analysis of apoptosis-related proteins in CLL and PLL cells; assay type: cell-based, human; details: 15 μM; for expression level of Bcl-2 in comparison to vehicle control: PBMC samples from Patient 2, 48 h
Description: The expression of apoptosis-related proteins was assessed in CLL and PLL cells exposed to the tested agents. All examined adenosine derivatives triggered proteolysis of PARP-1 full length protein (116 kDa) to its cleavage product (89 kDa), which is a known marker of apoptosis. Moreover, altered expression of pro-apoptotic (Bax) and anti-apoptotic proteins (Mcl-1, Bcl-2) from Bcl-2 family was also observed in purine derivative-treated leukemic cells. However, there were some individual differences between basal levels of these apoptotic regulators in model cells, as well as the changes in their cellular levels after the agent exposure were diverse. For instance, there were no significant alterations in Bax/Bcl-2 ratio in cell samples obtained from exemplary patient 1 exposed to the novel nucleosides.
Control PBMCs (without the agents), as well as the cells samples exposed to DMSO (vehicle control) and the tested agents were lysed (4° C., 1 h) in a buffer containing 10 mM Tris-HCl (pH 7.5), 300 mM NaCl, 1% Triton X-100, 2 mM MgCl2, 0.1 M DTT, and protease inhibitors as described previously (A., Kobylinska, J., Bednarek, J. Z., Blonski, M., Hanausek, Z., Walaszek, H., Piekarski, T., Robak, Z. M., Kilianska. 2006. In vitro sensitivity of B-cell chronic lymphocytic leukemia to cladribine and its combinations with mafosfamide and/or mitoxantrone, Oncol. Rep., 16, 1389-1395). Protein content was estimated according to Lowry method (O. H., Lowry, N. J., Rosebrough, A. L., Farr, R. J., Randall. 1951. Protein measurement with the Folin phenol reagent. J. Biol. Chem., 193, 265-275) and the cell lysates were prepared for subsequent Western blotting analysis. Protein samples (60 μg/lane) were separated by SDS polyacrylamide gel electrophoresis (SDS-PAGE) on 8.0 or 12.5% slab gels and electrotransfered onto Immobilon P (H., Towbin, T., Staechlin, J., Gordon, 1979, Electrophoretic transfer of protein from polyacrylamide gels to nitrocellulose sheets: procedure and some applications. Proc. Natl. Acad. Sci. USA, 76, 4350-4354). Membrane staining with 0.5% Ponceau S solution was done to confirm equal protein loading and completeness of the transfer. The membranes were saturated in 5.0% skim milk in TBS (10 mM Tris-HC1, pH 7.5, 150 mM NaC1) for 1 h at ambient temperature, and then incubated overnight with antibodies specific to Mcl -1 (1:1000), Bcl-2 (1:1000), Bax (1:1000), PARP-1 (1:1000), all from Santa Cruz Biotechnology Inc. Antigen recognition was performed with appropriate secondary antibodies conjugated with horseradish peroxidase. The antigen-antibodies complexes were detected with Novex HRP Chromogenic substrate (TMB) from Invitrogen or, alternatively, by chemiluminescence method (see results in FIG. 3).

caspase 3 = experiment: Caspase-3 activation assay (PE Active Caspase-3 Apoptosis Kit, flow cytometry); assay type: cell-based, human; parameters: number of caspase-3-positive cells: dose or concentration left out as unconfirmed; details: PLL cells; for number of cells with active form of caspase 3: 48 h drug exposure, 15 μM
Description: Caspase 3 is a main effector caspase which is involved in apoptosis process realization (Miura M., Zhu H., Otello R., Hartwieg E.A., Yuan J. 1993. Induction of apoptosis in fibroblasts by IL-1 beta-converting enzyme, a mammalian homolog of the C. elegans cell death gene ced-3, Cell, 75, 653-660). […] Our analysis, conducted after 48 h drug exposure, confirmed that in PLL cells a high antileukemic potential of adenosine modified at C-2 position with boron cluster is related to apoptosis induction. The number of cells with active form of the enzyme raised after the exposure to compound 3 from 9.4% and 10.6% in control and vehicle control (DMSO), respectively, to 28.5%. Similar effect (20,1%) was observed after the incubation of PLL cells with cladribine at concentration of 15 μM which recursively exceeds its level in serum of patients during antileukemic therapy. […] Of note, compound 5 affected PLL cells weaker than compound 3 which was confirmed by caspase 3 activation in 16.1% of leukemic cells.
The percent of leukemic PBMCs with active form of caspase-3 was measured cytometrically by PE Active Caspase-3 Apoptosis Kit, BD Pharmingen according to manufacturer's protocol. The analyses were conducted after 48 h incubation with/without (control) the agents or DMSO (vehicle control). BD LSR II flow cytometer was used and the analyses were performed using FACSDiva Version 6.1.2 software (see results in FIG. 2).

CLL cells = experiment: Cytotoxicity in leukemic PBMCs from CLL patients; assay type: cell-based; details: 24 and 48 h
Description: (§1) During the first stage, the cytotoxicity analysis of compounds according to the present invention introduced into the culture medium in increasing concentrations (from 0 μM to 60 μM) against leukemic and healthy peripheral blood mononuclear cells (PBMCs). The goal of this stage was to select the optimal concentrations which would be useful for the further comparative analysis of novel compound with conventional chemotherapeutics, i.e. cladribine and fludarabine, in terms of their antileukemic efficacy. The cytotoxicity of compounds was evaluated in PBMCs isolated from the blood of 5 patients with CLL, 1 with PLL and 5 healthy donors after 24 and 48 h. of incubation. Cell survival was evaluated cytometrically using propidium iodide staining using the Membrane Permeability/Dead Cell Apoptosis assay (propidium iodide+YO-PRO). […] FIG. 1a represents the survival of healthy cells treated with compounds according to the present invention at increasing concentrationsand evaluated using the Membrane Permeability/Dead Cell Apoptosis assay.
(§2) PBMC cells were isolated from peripheral blood using centrifugation via a Histopaque gradient according to the manufacturer's instructions. […] The cytotoxicity was assessed cytometrically after 24 and 48 h incubation.
(§3) Firstly, it was analyzed by propidium iodide staining. […]

PLL cells = experiment: Viability and apoptosis induction in PLL PBMCs (Membrane Permeability/Dead Cell Apoptosis Kit); assay type: cell-based, human; details: 15 μM, 1 case of PLL, very preliminary data
Description: The 15 μM concentration of the used agents, as safe for normal PBMCs, was selected for further analyses with regard to their apoptosis-inducing potential. The viability and apoptosis induction were examined in cell samples obtained from peripheral blood of 6 patients with leukemia (5 cases of CLL and 1 case of PLL). […] It is worth noting that the agents differed in their apoptosis inducing potential in PLL cells.
Firstly, it was analyzed by propidium iodide staining. Then, Membrane Permeability/Dead Cell Apoptosis Kit (Molecular Probes, Invitrogen™) was used to examine the contribution of apoptosis to cell death induction after exposure to the used agents. The analyses were performed on BD LSR II flow cytometry using FACSDiva Version 6.1.2 software. Ten thousand events were examined for each analysis. The distinction between living (YO-PRO-negative/propidium iodide-negative), early apoptotic (YO-PRO-positive/propidium iodide-negative) and dead (YO-PRO-positive/propiodium iodide-positive) cells was based on the differences in their permeability for fluorescent dyes. The results are shown as the percent of viable and early apoptotic cells in gated PBM cell population, respectively.
For further analyses the concentration of 15 μM of all tested agents was chosen. […]

normal PBMCs = experiment: Cytotoxicity in normal PBMCs (propidium iodide; Membrane Permeability/Dead Cell Apoptosis Kit); assay type: cell-based, human; details: normal PBMCs from healthy donors, 24 and 48 h
Description: as §1, §2, §3

Compound | expression level of Bcl-2 in comparison to vehicle control [1] | number of cells with active form of caspase 3 (caspase 3) | cytotoxicity / anti-leukemic potential against CLL cells (CLL cells) | Bax expression level ([1]; cells from patient 1, 48 h) | Bcl-2 protein level ([1]; cells from patient 1, 48 h) | number of caspase-3-positive cells (caspase 3; 48 h) | anti-leukemic (apoptosis inducing) potential against PLL cells (PLL cells) | cytotoxicity against normal PBMCs (normal PBMCs)
8-ethynyl-(1,12-dicarba-closo-dodecaboran-2-yl-2′-deoxyadenosine [compound 5] | clear decrease | 16.1% | more cytotoxic in comparison to compound 3 |  |  |  |  | 
Nc1nc(F)nc2c1ncn2[C@@H]1O[C@H](CO)[C@@H](O)[C@@H]1O [fludarabine] |  | 11.8% |  |  |  |  |  | 
Nc1nc(Cl)nc2c1ncn2[C@H]1C[C@H](O)[C@@H](CO)O1 [cladribine, reference compound] |  | 20,1% |  | essential increase | diminution | 11.8% |  | 
2-ethynyl-(1,12-dicarba-closo-dodecaboran-2-yl)adenosine [compound 3] | clear decrease | 28.5% | smaller anti-leukemic potential against CLL cells than compound 5 |  |  |  | very potent against PLL cells; also recorded: even higher than that of cladribine and fludarabine | less cytotoxic against normal PBMCs; also recorded: lower than fludarabine
